Literature values in patent US7109337B2, “Pyrimidine derivatives for the treatment of abnormal cell growth” (Pfizer Inc, priority 2002, dated 2006).

How the values were obtained:
[1] = system: transplanted human mammary carcinoma that expresses epidermal growth factor receptor tyrosine kinase (EGFR); conditions: athymic nude mice
[2] = system: another carcinoma that does not express the EGF receptor

O=CN/C=C/c1cc(O)ccc1O [erbstatin]
growth of transplanted human mammary carcinoma [1]: selectively attenuates the growth | growth of another carcinoma [2]: without effect on the growth
